Earlier results as cited in patent US20070275382A1, “Biomarkers for the Efficacy of Somatostatin Analogue Treatment” (priority 2003, published 2007).
Where two headings read alike, the source gives them in different places.

Columns and labels:
[1] = target: hSST-2 (Homo sapiens, UniProt P30874); details: background statement, cited from earlier work
[2] = target: hSST-3 (Homo sapiens, UniProt P32745); details: background statement; cited from earlier work
hSST-3, sequence (P32745 whole entry): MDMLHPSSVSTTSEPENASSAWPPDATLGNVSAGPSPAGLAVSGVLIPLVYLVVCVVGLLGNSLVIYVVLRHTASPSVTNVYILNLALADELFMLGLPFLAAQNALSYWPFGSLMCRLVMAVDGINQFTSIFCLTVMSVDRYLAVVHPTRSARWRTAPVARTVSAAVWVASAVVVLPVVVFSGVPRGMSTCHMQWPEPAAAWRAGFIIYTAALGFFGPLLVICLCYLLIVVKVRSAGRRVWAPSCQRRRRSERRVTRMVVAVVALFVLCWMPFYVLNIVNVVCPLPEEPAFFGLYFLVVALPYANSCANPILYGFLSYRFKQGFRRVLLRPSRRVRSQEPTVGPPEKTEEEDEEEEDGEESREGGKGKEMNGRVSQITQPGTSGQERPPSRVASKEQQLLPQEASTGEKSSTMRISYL

hSST-2, sequence (P30874 whole entry): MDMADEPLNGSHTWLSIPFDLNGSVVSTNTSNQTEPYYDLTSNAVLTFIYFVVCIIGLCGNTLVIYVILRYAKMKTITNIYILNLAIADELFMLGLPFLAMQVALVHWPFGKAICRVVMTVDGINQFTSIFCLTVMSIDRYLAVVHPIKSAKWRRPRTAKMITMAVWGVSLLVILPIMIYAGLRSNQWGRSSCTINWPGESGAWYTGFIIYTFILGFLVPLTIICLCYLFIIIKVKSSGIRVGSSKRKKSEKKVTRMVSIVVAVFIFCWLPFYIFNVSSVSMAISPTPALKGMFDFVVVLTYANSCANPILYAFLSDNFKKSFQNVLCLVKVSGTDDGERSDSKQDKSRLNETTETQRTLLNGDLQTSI

| SMILES | affinity/binding to somatostatin receptor subtype 2 (SSTR2) [1] | affinity/binding to somatostatin receptor subtype 2 (SSTR2) ([1]; listed as Sandostatin®) | binding to SSTR3 [2] |
| --- | --- | --- | --- |
| C[C@@H](O)[C@@H]1NC(=O)[C@H](CCCCN)NC(=O)[C@@H](Cc2c[nH]c3ccccc23)NC(=O)[C@H](Cc2ccccc2)NC(=O)[C@@H](NC(=O)[C@H](N)Cc2ccccc2)CSSC[C@@H](C(=O)N[C@H](CO)[C@@H](C)O)NC1=O [octreotide] | selective high affinity | binds mainly to SSTR2 | to some extent |
| CC(C)[C@@H]1NC(=O)[C@H](CCCCN)NC(=O)[C@@H](Cc2c[nH]c3ccccc23)NC(=O)[C@H](Cc2ccc(O)cc2)NC(=O)[C@@H](NC(=O)[C@H](N)Cc2ccc3ccccc3c2)CSSC[C@@H](C(=O)N[C@H](C(N)=O)[C@@H](C)O)NC1=O [lanreotide] | selective high affinity | – | – |
